Measurements as given in PubChem BioAssay (NCI).
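96-well plates; 48 h exposure; 5 concentrations. Endpoints by linear interpolation between flanking doses. Not reached: highest tested concentration assigned. GI50: concentration for 50% inhibition of growth. TGI is the concentration that stops growth completely.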

Columns and labels:
Test in all cases: inhibition of tumour cell growth, NCI panel, 48 h
A549 NSCLC = tested on: A549 NSCLC
ACHN renal = tested on: ACHN renal
HCT-15 colon = tested on: HCT-15 colon
M14 melanoma = tested on: M14 melanoma
MCF7 breast = tested on: MCF7 breast
NCI-H226 lung = tested on: NCI-H226 lung
NCI-H522 lung = tested on: NCI-H522 lung
SNB-75 CNS = tested on: SNB-75 CNS
T-47D breast = tested on: T-47D breast
UACC-257 melanoma = tested on: UACC-257 melanoma

| Structure (SMILES) | GI50 (A549 NSCLC) [µM] | TGI (A549 NSCLC) [µM] | GI50 (ACHN renal) [µM] | TGI (ACHN renal) [µM] | GI50 (HCT-15 colon) [µM] | TGI (HCT-15 colon) [µM] | GI50 (M14 melanoma) [µM] | TGI (M14 melanoma) [µM] | GI50 (MCF7 breast) [µM] | TGI (MCF7 breast) [µM] | GI50 (NCI-H226 lung) [µM] | TGI (NCI-H226 lung) [µM] | GI50 (NCI-H522 lung) [µM] | TGI (NCI-H522 lung) [µM] | GI50 (SNB-75 CNS) [µM] | TGI (SNB-75 CNS) [µM] | GI50 (T-47D breast) [µM] | TGI (T-47D breast) [µM] | GI50 (UACC-257 melanoma) [µM] | TGI (UACC-257 melanoma) [µM] |
| --- | --- | --- | --- | --- | --- | --- | --- | --- | --- | --- | --- | --- | --- | --- | --- | --- | --- | --- | --- | --- |
| N#CC1=C(N)NC(=S)NC12Nc1ccccc1O2 (centres undefined) | 37.2 | > 100 | 29.2 | 99.2 | 21.6 | > 100 | 26 | > 100 | 27.2 | > 100 | 30.5 | > 100 | 11.5 | 43.1 | 59.5 | > 100 | 41.5 | > 100 | 35.3 | > 100 |
| OC(C1=C/C(=C\c2ccncc2)c2ccccc21)c1ccncc1 (centres undefined) | – | 41.8 | – | 53.4 | – | > 63.5 | – | 27.8 | – | 30.7 | – | 31.1 | – | 31.1 | – | 24 | – | 33.7 | – | 19.1 |
| S=c1nc(Oc2ccc(Cl)c(Cl)c2)[nH]c(=S)[nH]1 | – | 61.4 | – | > 82.2 | – | > 100 | – | > 100 | – | > 100 | – | > 77.6 | – | 38.2 | – | > 84.5 | – | 59.6 | – | > 80 |
| O=[N+]([O-])c1ccc(-c2nc(N(CCO)CCO)c3ccccc3n2)o1 | 0.128 | 0.822 | 0.159 | 0.631 | 0.176 | 1.71 | 0.143 | 0.316 | 0.0419 | 0.397 | 0.216 | 1.05 | 0.0713 | 0.217 | 0.16 | 0.588 | 0.319 | 5.02 | 0.189 | 0.453 |
| C=C1CC[C@@]2(C#N)[C@H]3[C@H](CC[C@@H]2C)[C@@H](C)C[C@@H](CC(C)(C)C#N)[C@H]13 | 3.52 | 34.8 | 1.03 | 14.7 | 0.604 | 23.1 | 1.48 | 12.5 | 0.785 | 15.8 | 2.43 | 24.1 | 10.8 | 57.9 | 0.215 | 0.705 | 2.24 | 10.9 | 8.3 | 56.4 |
| COc1c(C)c2c(c(O)c1C/C=C(\C)CCC(=O)OCCN1CCOCC1)C(=O)OC2 | 0.289 | > 100 | 0.458 | > 100 | 0.0928 | > 100 | 0.29 | > 100 | 0.196 | > 100 | 0.581 | > 100 | 0.3 | > 100 | 0.475 | > 24.9 | 0.612 | > 100 | 0.573 | > 100 |
| COc1ccc(C2=NN(C(=O)COc3ccc(Cl)cc3)C(O)(c3cc(F)c(Cl)cc3Cl)C2)cc1OC (centres undefined) | 6.24 | 18.7 | 1.63 | 3.28 | 1.39 | 3 | 2.18 | 6.5 | 2.18 | 8.21 | 2.84 | 8.24 | – | 2.37 | 2.69 | 7.3 | 1.51 | 3.29 | 2.74 | 8.01 |
| N=C1c2nc3n(c2C(=O)c2nc4n(c21)CCCC4)CCCC3 | 1.98 | 4.33 | 20.5 | > 100 | 2.07 | 6.62 | 1.82 | 3.29 | 1.36 | 3.61 | 1.08 | 3.38 | 4.17 | 26.1 | 1.83 | 3.57 | 11.7 | > 100 | 1.67 | 4.81 |
| CCN(CC)CCOc1ccc(Nc2ncc3cc(-c4ccc(O)cc4)c(=O)n(C)c3n2)cc1 | 13.8 | 30.7 | 0.0618 | 17.5 | 0.191 | 1.75 | 1.27 | 7.12 | 1.07 | 2.78 | 4.61 | 22.6 | 2.69 | 27.1 | 0.0406 | 13.7 | 12.2 | 31.8 | 7.57 | 31.6 |
| NCCCC(=O)Nc1ccncc1 | > 100 | > 100 | > 100 | > 100 | > 100 | > 100 | > 100 | > 100 | > 100 | > 100 | > 100 | > 100 | > 100 | > 100 | 60 | > 100 | > 100 | > 100 | > 100 | > 100 |
